Assay results: patent US10457665B2, “1,4-di-(4-methylthiophenyl)-3-phtaloylazetidine-2-one and the derivatives thereof” (Universite De Nantes, priority 2015, dated 2019)

Key:
[1] = system: CB1R expression in liver explants of ob/ob mice; test: Liver explant culture, CB1R gene expression (RT-PCR); assay type: cell-based, mouse; details: liver explants of ob/ob mice treated 21 h, FIG. 1
Procedure: The liver of the mice was perfused in situ, under sodium pentobarbital anaesthesia (50 mg/kg), with Hank's medium (pH 7.4) saturated with oxygen. Next, the liver was sectioned using a Brendel/Vitron slicer (Tucson, Ariz., USA) in the same medium. The liver sections (about 200 μm) were then incubated 21 h in William's medium E (WME) oxygenated and supplemented with deactivated foetal calf serum (10%) and antibiotic/antifungal cocktail (1%) under controlled atmosphere (5% CO2), to which is added either the antagonist to be tested or vehicle.
Total messenger RNA (mRNA) extraction was carried out with Tri Reagent (Euromedex, France) and consecutive synthesis of complementary DNA (cDNA) was carried out from 1 μg of mRNA with the Bio-Rad iScripttm Reverse Transcription super mix kit (Bio-Rad, France).
Gene expression was evaluated by semi-quantitative real-time reverse transcription-polymerase chain reaction (RT-PCR). The primers used were designed using the Primer3Plus software (http://www.bioinformatics.nl/cgi-bin/primer3plus/primer3plus.cgi) and were synthesized by MWG-Biotech (TATA box-binding protein: Sense […], antisense […]; CB1R: Sense […], antisense aaccccacccagtttgaac). Semi-quantification of gene expression was obtained by taking into account the efficacy of each PCR and after standardization with the reporter gene, TATA box-binding protein.

[2] = molecular target: T1, CB1R (pcDNA3.1-mCB1) (Mus musculus, UniProt P47746); test: GloSensor cAMP assay in CB1R-transfected HEK293T/17 cells; assay type: cell-based; details: for cAMP concentrations in the absence of agonist (AEA): HEK293T/17 cells transfected with mCB1, forskolin 1 μM, FIG. 2
T1 construct: expressed in transfected cells; host or cells: HEK293T/17 (ATCC), transient transfection with FuGENE HD
T1 sequence (P47746 whole entry): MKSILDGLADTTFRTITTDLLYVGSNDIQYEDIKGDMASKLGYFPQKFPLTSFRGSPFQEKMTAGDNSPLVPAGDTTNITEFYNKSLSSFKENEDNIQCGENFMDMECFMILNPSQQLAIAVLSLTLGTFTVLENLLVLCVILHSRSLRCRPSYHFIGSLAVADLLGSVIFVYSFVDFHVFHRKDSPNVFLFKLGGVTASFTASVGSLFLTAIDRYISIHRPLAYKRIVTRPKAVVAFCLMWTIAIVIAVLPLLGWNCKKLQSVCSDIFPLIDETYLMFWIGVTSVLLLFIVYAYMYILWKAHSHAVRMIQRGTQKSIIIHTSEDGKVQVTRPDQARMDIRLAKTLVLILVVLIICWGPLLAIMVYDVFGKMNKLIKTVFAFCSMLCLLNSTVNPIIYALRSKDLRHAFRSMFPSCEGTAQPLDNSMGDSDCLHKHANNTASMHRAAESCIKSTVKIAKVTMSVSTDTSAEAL
Procedure: HEK293T/17 (ATCC) cells were cultured in DMEM 10% FCS, then seeded at 30000 cells/well in 96-well plates. After 24 h, the cells were subjected to transient transfection by FuGENE HD (Promega) by pcDNA3.1-mCB1 (50 ng) and pGlo (100 ng) plasmids with or without pertussis toxin (PTX). For the control assays, the cells were transfected with empty pcDNA3 (EV) and pGlo vectors with or without PTX. At 48 h (24 h post-transfection), the cells were loaded for 2 h with 2% GloReagent in CO2-independent medium with 10% FCS (80 μL/well).
The cells were then treated by adding, at t=0, 10 μL/well of Forskolin (FSK) 1 μM final, in order to increase the basal cAMP concentration. The kinetics of appearance of cAMP was monitored for 10 minutes. At t=10, the molecules to be tested were added and the cAMP variations measured for 20 minutes. The light signal was measured in RLU and is expressed as % response relative to the signal read at t=10 min (FSK1 μM). Sigmoidal curves were obtained by measurement at t=10 min after addition of the molecule to be tested (thus t=20 min total) of the percentage of light signal as a function of molecule concentration. The 4PL regression was carried out using the Sigma Plot software and made it possible to obtain an EC50 (1 experiment, n=3).

[3] = system: wild-type C57BL/6 mice; test: Acute oral glucose tolerance test (OGTT) in wild-type mice; assay type: in vivo, mouse; details: 10 mg/kg i.p. 10 min before 2 g/kg oral glucose load, wild-type C57Bl/6J mice
Procedure: (§1) In order to evaluate the short-term effects of the rimonabant-like molecules, as well as their selectivity for CB1R, wild-type C57BL/6 mice and CB1R −/− mice underwent an oral glucose tolerance test (OGTT at 2 g/kg) 10 min after i.p. injection of vehicle or of JM-02.003 or JM-00.266 (i.e., compound IA) (10 mg/kg). Blood glucose was measured at times t=0, t=15 min, t=30 min, t=45 min, t=60 min, t=90 min, and t=120 min post-oral. glucose administration using a Contour®TS blood glucose monitor (ref. 81574201, Bayer HealthCare) and reactive strips (ref. 81574274, Bayer HealthCare).

[4] = system: CB1R -/- mice; test: Acute oral glucose tolerance test (OGTT) in CB1R KO mice; assay type: in vivo, mouse; details: 10 mg/kg i.p., OGTT 2 g/kg
Procedure: as §1

[5] = system: C57BL/6 mice; test: Gastrointestinal transit (charcoal), anandamide-induced inhibition; assay type: in vivo, mouse; details: agonist alone, 10 mg/kg i.p.
Procedure: Transit through the stomach and the intestine was measured via oral administration of vegetable charcoal suspended in gum arabic used herein as nonabsorbable marker. Briefly, following a short fast, C57BL/6 mice were injected intraperitoneally (i.p.) with anandamide (10 mg/kg) in the presence or absence of the molecule of interest JM-00.266 (i.e., compound IA) (10 mg/kg) before oral charcoal administration. 25 minutes later, the animals were sacrificed by cervical dislocation in order to entirely remove the intestine. The distance between the beginning of the pylorus and the location of the charcoal bolus was measured.

[6] = system: obese C57BL/6 mice; test: Plasma liver markers after 30-day chronic treatment; assay type: in vivo, mouse
From the text: (§2) In order to determine the long-term effects of the molecules of interest, C57BL/6 mice made obese by means of a high-sucrose, high-fat diet (HSHF: 30% crude fat, 33.5% carbohydrates; ref. E15126-34; ref. E15126-34, SSNIFF, Soest, Germany) for 20 weeks. These mice then received daily an i.p. injection of rimonabant, JM-00.266 (i.e., compound IA) or vehicle for a period of 30 days. In parallel, weight and food intake were monitored every two days following the beginning of the treatment.
Total cholesterol, triglycerides and hepatic markers were assayed by a Dimension Vista Intelligent Lab System (Siemens, Saint-Denis, France) using suitable reagents.

[7] = system: obese C57BL/6 mice; test: Open-field test after 30-day chronic treatment; assay type: in vivo, mouse; details: end of 30-day treatment, 10 mg/kg i.p.
Procedure: Locomotor activity of the mice was measured at the conclusion of the chronic treatment with rimonabant or molecule JM-00.266 (i.e., compound IA) by an infrared monitoring system. To that end, the animals were placed individually in 43×43 cm plexiglass boxes (MED associates) for 20 min. Two series of 16 pulsed infrared beams were spaced 2.5 cm apart on opposite walls to record ambulatory X-Y movements at 100 ms resolution. The centre was defined as a central 32×32 cm square. In addition to locomotor activity information, this test makes it possible to predict anxiolytic activity in response to novelty or to an anxiogenic environment. The variables measured in the open field are total ambulatory activity (in cm), the number of entries and the time spent in the central area as well as the distance traversed in the centre divided by the total distance traversed.

[8] = system: obese C57BL/6 mice; test: Food intake, body weight and body composition (EchoMRI) during 30-day chronic treatment; assay type: in vivo, mouse
From the text: as §2
The long-term effect of the treatment on body composition was measured using an EchoMRI™ scanner allowing non-invasive analysis of fat mass, lean mass and body fluid composition by nuclear magnetic resonance (NMR) on the live animal without anaesthesia.

[9] = system: obese C57BL/6 mice; test: OGTT before and after 30-day chronic treatment; assay type: in vivo, mouse; details: obese mice after 30 days of treatment, 10 mg/kg
Procedure: (§3) In order to evaluate the long-term effects of the treatment on blood glucose control, glucose tolerance (OGTT) and insulin sensitivity (ITT) were evaluated pre- and post-treatment. Thus, for the OGTT the mice were force-fed glucose (2 g/kg), and for the ITT the mice received an i.p. injection of insulin (0.5 IU/kg). In both cases, blood glucose was measured at times t=0, t=15 min, t=30 min, t=45 min, t=60 min, t=90 min, and t=120 min post-glucose ingestion using a Contour®TS blood glucose monitor (ref. 81574201, Bayer HealthCare) and reactive strips (ref. 81574274, Bayer HealthCare).

[10] = system: obese C57BL/6 mice; test: ITT before and after 30-day chronic treatment; assay type: in vivo, mouse; details: obese mice after 30 days of treatment, 10 mg/kg
Procedure: as §3

[11] = system: CB1R expression in liver explants of ob/ob mice; details: previous study (Jourdan et al. 2012); cited from earlier work
[12] = obese mice, 10 mg/kg i.p. daily, 30 days

SMILES: CSc1ccc(C2C(N3C(=O)c4ccccc4C3=O)C(=O)N2c2ccccc2)cc1 (stereo not drawn) [JM-00.242]
- hepatic CB1R expression [1]: not selected for the remainder of the study

SMILES: COc1cc(OC)cc(N2C(=O)C(N3C(=O)c4ccccc4C3=O)C2c2ccncc2)c1 (stereo not drawn) [JM-02.003]
- hepatic CB1R expression [1]: significant decrease
- cAMP concentrations in the absence of agonist (AEA) [2]: increased
- glucose tolerance compared with vehicle [3]: improves glucose tolerance
- improvement in glucose tolerance in CB1R KO mice [4]: persists

SMILES: CSc1ccc(C2C(N3C(=O)c4ccccc4C3=O)C(=O)N2c2ccc(Cl)cc2)cc1 (stereo not drawn) [JM-00.246]
- hepatic CB1R expression [1]: not selected for the remainder of the study

SMILES: O=C1C(N2C(=O)c3ccccc3C2=O)C(c2ccncc2)N1Cc1cccc(Cl)c1 (stereo not drawn) [JM-01.1006]
- hepatic CB1R expression [1]: significant decrease
- cAMP concentrations in the absence of agonist (AEA) [2]: no effect

SMILES: CCCCC/C=C\C/C=C\C/C=C\C/C=C\CCCC(=O)NCCO [AEA, reference compound]
- intracellular cAMP concentration on activation of the receptors by agonist ([2]; data not shown): reduction
- gastrointestinal transit [5]: strongly inhibited

SMILES: Cc1c(C(=O)NN2CCCCC2)nn(-c2ccc(Cl)cc2Cl)c1-c1ccc(Cl)cc1 [SR141716, reference compound]
- ALT and AST concentrations in plasma of obese mice versus control ([6]; 30-day chronic treatment): significantly decreased
- liver damage markers compared with the control ([6]; 30-day chronic treatment): does not cause an increase
- ALPI plasma concentration [6, 12]: 37.4 ± 2.4
- ALT plasma concentration [6, 12]: 21.6 ± 2.3 U/L
- AST plasma concentration [6, 12]: 46.4 ± 3.1 U/L
- Gamma GT plasma concentration [6, 12]: <3 U/L
- Total bilirubin plasma concentration [6, 12]: <2 µmol/L
- motor activity [7]: increases motor activity
- time spent in the centre of the arena / anxiety state [7]: not altered
- fat mass versus control mice ([8]; end of 30-day treatment, NMR): lower fat mass
- lean mass versus control mice ([8]; end of 30-day treatment, NMR): higher lean mass
- body weight relative to control mice [8, 12]: lost weight
- food intake compared with control mice [8, 12]: transiently decrease their food intake
- basal blood glucose [9]: significant improvement
- glucose tolerance (OGTT 2 g/kg) [9]: significant improvement
- insulin resistance (ITT) [10]: improved
- CB1R expression in liver explants [11]: reduced
